# Reference: paper PMC5693942 (Scientific Reports, 2017)
# Several values for one entry are separate records, joined by “and”; a condition that tells them apart may be missing. Equal values may be shown once.
# Tests used:
# [1] = system: D. magna; details: ref [34]; cited from earlier work
# [2] = system: P. promelas; details: ref [34]; cited from earlier work
# [3] = River water simulating microcosms (degradation of FL); details: river water, 1 µg L^−1 racemic FL, 16 days
# [4] = system: Tetrahymena thermophila; experiment: microbe, parasite or virus in culture; type: cell-based
# Description: The tests were performed in accordance with the protocols provided by the manufacturer. […] The tests were carried out in disposable spectrophotometric cells of 1 cm path-length, to enable the measurement of the optical density (OD) at 440 nm. […] This change in OD over the time period is used to quantify the degree of inhibition and subsequent calculation of the EC50. Each concentration was repeated in duplicate.
# [5] = Activated sludge simulating microcosms (degradation of FL, formation of NFL); type: physicochemical
# [6] = system: Daphnia magna; experiment: Daphnia magna acute 48 h immobilization assay (Daphtoxkit); type: in vivo; details: 48 h;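 also: test concentrations in mg per L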
# Description: Six concentration levels (5 concentrations plus control, four replicate beakers for each concentrations, five individual for each beaker) were tested. […] Each experiment was repeated in triplicate.
smiles,measurement,setting,value
CNCC[C@H](Oc1ccc(C(F)(F)F)cc1)c1ccccc1 [(S)-FL],LOEC21d -grazing,[1],0.20 mg/L
same,LOEC21d -immobilization,[1],0.44 mg/L
same,LOEC21d -reproduction,[1],0.44 mg/L
same,LOEC7d -feeding,[2],0.05 mg/L
same,LOEC7d -growth,[2],0.05 mg/L
same,LOEC7d -survival,[2],0.10 mg/L
same,removal of FL,[3]; dark biotic conditions (DBR),60.4%
same,removal of FL,[3]; light abiotic conditions (LAR),74.5%
same,removal of FL,[3]; light biotic reactor (LBR),98.4%
same,% I (percentage inhibition),"[4]; definitive test, conc. 0.104",-1.720%
same,% I (percentage inhibition),"[4]; definitive test, conc. 0.313",4.194%
same,% I (percentage inhibition),"[4]; definitive test, conc. 0.535",0.108%
same,% I (percentage inhibition),"[4]; definitive test, conc. 10.446",7.204%
same,% I (percentage inhibition),"[4]; definitive test, conc. 20.892",22.366%
same,% I (percentage inhibition),"[4]; definitive test, conc. 68.945",73.441%
same,% I (percentage inhibition),"[4]; definitive test, conc. 104.462",83.118%
same,% I (percentage inhibition),"[4]; range test, conc. 0.005",22.617%
same,% I (percentage inhibition),"[4]; range test, conc. 0.050",21.857%
same,% I (percentage inhibition),"[4]; range test, conc. 0.500",26.510%
same,% I (percentage inhibition),"[4]; range test, conc. 5.000",26.130%
same,% I (percentage inhibition),"[4]; range test, conc. 50.000",57.653%
same,kbiol,[5]; 10 µg L^−1,0.04 LgSS ^−1h^−1
same,t1/2biol,[5]; 10 µg L^−1,19 h and 18.9 h
same,k1,"[5]; 10 µg L^−1, pseudo-first order",0.07 h⁻¹
same,kbiol,[5]; 100 µg L^−1,0.04 LgSS ^−1h^−1
same,t1/2biol,[5]; 100 µg L^−1,19 h and 19.4 h
same,k1,"[5]; 100 µg L^−1, pseudo-first order",0.07 h⁻¹
same,transformation / removal,"[5]; 100 µg L^−1 microcosm, 24 h",80%
same,"Average effect (N immobile, 5 daphnids per replicate)",[6]; concentration 0.5,0.25
same,"Average effect (N immobile, 5 daphnids per replicate)",[6]; concentration 1.5,1
same,"Average effect (N immobile, 5 daphnids per replicate)",[6]; concentration 5,3.25
same,"Average effect (N immobile, 5 daphnids per replicate)",[6]; concentration 16,5
same,"Average effect (N immobile, 5 daphnids per replicate)",[6]; concentration 50,5
